Assay results taken from patent US12295973B2 (Fred Hutchinson Cancer Center, priority 2017, dated 2025).
Where a SMILES comes first, the peptide text is derived from it. [ ]: non-standard residue; d: D form. The star is where a group is joined. dPhe(4-NHCONH2) = NC(=O)Nc1ccc(C[C@@H](N)C(=O)O)cc1; Dihydroorotyl(S) = O=C1C[C@@H](C(=O)*)NC(=O)N1; dPhe(4-Cl) = N[C@H](Cc1ccc(Cl)cc1)C(=O)O; Phe(4-NH2) = Nc1ccc(C[C@H](N)C(=O)O)cc1; d2Nal = N[C@H](Cc1ccc2ccccc2c1)C(=O)O; Lys(iPr) = CC(C)NCCCC[C@H](N)C(=O)O; d3Pal = N[C@H](Cc1cccnc1)C(=O)O

Assays:
LT-HSCs = experiment: Gene expression in LT-HSCs purified after 300cGy irradiation; assay type: in vivo, mouse
Description: To gain some insights in to the molecular changes mediated by LHRH-Ant treatment on HSCs LT-HSCs were purified after 300cGy irradiation and expression of key genes associated with quiescence, proliferation, DNA damage response and apoptosis of HSCs was assessed. […] Importantly, both Bcl-2 and Mcl-1 have been implicated in regulating HSC quiescence and survival respectively^45,46.
Real time PCR: Reverse transcription-PCR was performed with QuantiTect reverse transcription kit (QIAGEN). For real-time PCR, specific primer and probe sets were obtained from Applied Biosystems as follows: β-actin (Mm01205647_g1); HPRT (Mm00446968_m1); AR (Mm00442688_m1); FSHR (Mm00442819_m1); LHCGR (Mm00442931_m1). PCR was done on ABI 7500 (Applied Biosystems) or Step-One Plus (Applied Biosystems) with TaqMan Universal PCR Master Mix (Applied Biosystems). Relative amounts of mRNA were calculated by the Ct method.
Statistics: Bars and error bars represent the mean+SEM for the various groups. For most experiments, nonparametric testing was performed if normal distribution could not be assumed. All tests performed are two sided. Statistical analysis between two groups was performed with the nonparametric, unpaired Mann-Whitney U test. Tests performed are two sided, except for gene category analysis. Differential expression of gene categories was computed using Fisher's method and the input p-value for each individual gene from a category is computed from a one sided test. Survival data were analyzed with the Mantel-Cox log-rank test. Parametric t test was used for FIG. 6H right panel. The experiments were not randomized and the investigators were not blinded to the group allocation during the experiments or when assessing the outcomes. To ensure adequate power for statistical analysis at least five samples per group were tested. In general variation within groups and between experiments was low, however to take into account inter-experimental variation all experiments were performed at least twice. To account for intra-experimental variation, particularly for in vitro studies, several wells per conditions were assessed with primary sample material coming from at least two different mice. No samples or animals were excluded from the analysis except for mouse peripheral blood analysis where outliers were detected prior to the analysis with two-sided Grubbs' test for outliers (GraphPad). All statistics were calculated and display graphs generated using GraphPad 6.

[1] = tested on: mice challenged with successive doses of 5-FU; experiment: Mouse survival after serial 5-fluorouracil (5-FU) challenge; assay type: in vivo; conditions: 5-FU 150 mg/kg I.P. once every 7 days, 3 times
Excerpt: To test whether this LHRH-Ant-mediated preservation of HSC quiescence and enhancement of HSC survival after hematopoietic stress could confer protection against chemotherapy-induced myeloablation, mice were challenged with successive doses of 5-fluorouracil (5-FU); a well-established method to functionally test HSC proliferation and self-renewal that leads to ablation of proliferating HSCs and ultimately death^29,34,47.
Reagents: Degarelix (as acetate), a LHRH-Ant (Firmagon), was resuspended in sterile water for injection and administered S.C. to mice at a dose of 40 mg/kg. To evaluate the radiomitigative effect of LHRH-Ant on survival, mice were treated subcutaneously (S.C.) with a single injection of the LHRH-Ant or a saline control solution (PBS). Degarelix was purchased from the Memorial Sloan-Kettering Cancer Center Pharmacy. […] LH from human pituitary (SIGMA) was resuspended in PBS for in vitro studies. MDV3100 (selleckchem) was resuspended in a mixture of 45% PBS, 45% PEG and 10% DMSO and administered daily to mice by oral gavage at a dose of 10 mg/kg. 5-FU (InvivoGen) was administered to mice intraperitoneally (I.P.) at a dose of 150 mg/kg once every 7 days consecutively for 3 times as previously described^34,47,49.

[2] = tested on: committed hematopoietic progenitor cells; experiment: Colony-forming unit activity of BM from L-TBI mice; assay type: in vivo, mouse; conditions: day 7 after L-TBI
Description: To investigate the specific regenerative effects mediated by LHRH-Ant treatment on the hematopoietic stem and progenitor cell (HSPC) compartment, BM were analyzed at several time points after L-TBI. […] To determine hematopoietic functional potential, colony-forming unit activity was next quantified to determine the effects of LHRH-Ant on the recovery of committed hematopoietic progenitor cells. […] Consistent with these functional findings, on day 14 after L-TBI, expansion of LSKs as well as their downstream progenitors in mice given LHRH-Ant were found (FIGS. 2F, 2G). […] However, given the changes in HSC phenotype after radiation, the standard competitive repopulation functional assay was adapted to evaluate the presence and relative quantity of functional HSCs after L-TBI. […]
Colony-Forming Cell (CFC) and Cobblestone Areas Forming Cell (CAFC): Assays were performed as previously described with a minor modifications^50. […] Colonies were scored after 10 days of incubation at 37° C. and 5% CO2. […] After 3 weeks of co-culture, CAFCs were scored as phase-dark hematopoietic clones of at least 5 cells beneath the stromal layer using an inverted microscope.

SMILES: CC(=O)N[C@H](Cc1ccc2ccccc2c1)C(=O)N[C@H](Cc1ccc(Cl)cc1)C(=O)N[C@H](Cc1cccnc1)C(=O)N[C@@H](CO)C(=O)N[C@@H](Cc1ccc(NC(=O)[C@@H]2CC(=O)NC(=O)N2)cc1)C(=O)N[C@H](Cc1ccc(NC(N)=O)cc1)C(=O)N[C@@H](CC(C)C)C(=O)N[C@@H](CCCCNC(C)C)C(=O)N1CCC[C@H]1C(=O)N[C@H](C)C(N)=O [LHRH-Ant, Degarelix] (Ac-[d2Nal][dPhe(4-Cl)][d3Pal]S[Phe(4-NH2)](Dihydroorotyl(S))[dPhe(4-NHCONH2)]L[Lys(iPr)]P[dA]-NH2)
- expression level of Cdknla (p21) (LT-HSCs): significantly higher levels
- expression level of Hest (LT-HSCs): significantly higher levels
- expression of anti-apoptotic gene Bcl2 (LT-HSCs): significantly increased
- expression of anti-apoptotic gene Mcl1 (LT-HSCs): significantly increased
- expression of genes related to apoptosis (LT-HSCs; p=0.004): significant overexpression
- expression of genes related to quiescence (LT-HSCs; p=0.02): significant overexpression
- survival after serial 5-FU challenge [1]: significantly improved survival
- BFU-E colonies [2]: significant increase
- CFU-GM colonies [2]: significant increase
